For orientation: melting point means the temperature of the solid-liquid transition.

SMILES strings stand for the structures. Some results are limits rather than exact numbers.

For the compound `CC(COc1ccc(C(N)=O)c(O)c1)NCC(O)c1ccccc1` (stereo not given), the melting point was 171 to 173 °C.

As to `CC(C)(C)OC(=O)NCCCc1ccc(OCCC2Oc3ccccc3N(Cc3cccc(Cl)c3)C2=O)cc1` (stereo not given), the melting point is 75 to 81 °C.

Take `CCOC(=O)c1cc(S(N)(=O)=O)c(Cl)cc1Cl`: the melting point lay in the range of 119 to 122 °C.

As for `CCCN1CCN(CCCOc2ccc3nc(C#N)nc(NCC(C)(C)C)c3c2)CC1`, the melting point was in the range of 102 to 104 °C.

The compound `Nc1ncc2cc(-c3ccncc3)c(N)nc2n1` showed a melting point of more than 340 °C.

For the compound `CC(C)(C)c1ccc(C(CO)NC(=O)c2c(F)c(F)cc(F)c2F)cc1` (stereo not given), the melting point fell in the range of 158 to 160 °C.

Take `CCc1c(C(=O)C(N)=O)c2ccsc2n1Cc1ccccc1`: the melting point lay in the range of 90 to 92 °C.

Regarding `COc1ccc(C(=O)Nc2c(Cl)cc(CO)cc2Cl)cc1OC1CCCC1`, the melting point was in the range of 174 to 176 °C.

In turn, `CCOC(=O)c1c(C)nc(-c2ccccc2)nc1-c1cc([N+](=O)[O-])ccc1S(C)(=O)=O` displayed a melting point of 150 to 151 °C.

For the compound `NS(=O)(=O)c1ccc(CO)s1`, the melting point lay in the range of 70 to 71 °C.

The compound `COc1ccc(-c2cc(-c3ccccc3)nc(C)c2C(=O)Cl)cc1OC` registered a melting point of 140 °C.

In the case of `Cc1cc(F)nc(-c2ccc(F)cc2)c1`, the melting point came out at 49 °C.

Turning to `Cc1ccc([N+](=O)[O-])cc1Nc1nnn[nH]1`, the melting point lay within 245 to 249 °C.

On to `C=C(CS(=O)(=O)Cc1ccccc1)c1ccccc1`, for which the melting point was 118 °C.

`CCS(=O)(=O)N(CCN(C)C(C)=O)c1ccc(N)cc1`: the melting point was found to be 140 °C.

The compound `FC(F)(F)C(c1ccccc1)(c1ccccc1)c1ccccc1` had a melting point of 158 to 159 °C.

The compound `COc1ccc2c(ncn2C(=O)OC(C)(C)C)c1CBr` displayed a melting point of 127 to 129 °C.

Compound `CC(=O)Nc1c(-c2ccc(-c3ccccc3)cc2)nc2ccc(F)cc2c1C(=O)O` came in with a melting point of 256 to 259 °C.

As to `CCCCCCCCCCCCn1nnc(Nc2ccccc2)n1`, the melting point was 58 to 61 °C.

In turn, `CN=C(NS(=O)(=O)c1ccc(Cl)cc1)C1=NN(c2ccc(Cl)cc2)C(c2ccccc2)C1` (stereo not given) had a melting point of 134 to 144 °C.

Regarding `O=C1N(Cc2ccccn2)c2ccccc2C12COc1cc3[nH]ncc3cc12` (stereo not given), the melting point was in the range of 117 to 119 °C.

With `CCCC1CCCCc2c1oc(=O)c(C(c1ccccc1)C1CC1)c2O` (stereo not given), the melting point is 60 to 65 °C.

In the case of `O=C(CCc1ccccc1)C(Cc1ccccc1)C(=O)CCc1ccccc1`, the melting point fell in the range of 74 to 75 °C.

With `O=C(Nc1n[nH]c2nc(Oc3ccc(F)cc3F)ncc12)C1CCCC1`, the melting point is 206 to 208 °C.

Turning to `O=c1ccn(-c2cccc(C(F)(F)F)c2)nc1-c1cc(C(F)(F)F)nn1-c1ccccc1`, the melting point is 190 to 191 °C.

`N#Cc1c2n(c(=O)n1-c1cc(O)c(Cl)cc1F)CCCC2` gave a melting point of 204 to 206 °C.

Compound `COc1cc(C[C@H]2NC(=O)CN(Cc3ccccc3)C2=O)ccc1C` had a melting point of 205 to 209 °C.

In the case of `O=C(O)c1cccc(N2CCN(CCc3ccccc3)CC2)c1F`, the melting point is 85.5 to 87.5 °C.

Compound `COC(=O)COc1ccc(-c2coc3cc(OCC(=O)OC)ccc3c2=O)cc1` registered a melting point of 163 to 166 °C.

`Cc1ccccc1-c1c(NC(=O)Nc2c(C)cccc2C(C)C)c(=O)oc2c(F)cc(F)cc12` gave a melting point of 219 to 220 °C.

Take `OCCCNc1cc(Nc2ccc(N3CCOCC3)cc2)ncn1`: the melting point was in the range of 198 to 199 °C.

For `CCc1ccc2nc(Cl)nc(Cl)c2c1`, the melting point lay within 80 to 83 °C.

`Cc1ccccc1C1CCN(CCc2c[nH]c3ccccc23)CC1`: the melting point was 111 to 112 °C.

In the case of `O=C(Cl)c1ccc2cc(C(=O)Cl)ccc2c1`, the melting point amounted to 186 °C.

In the case of `CCCCCCCCSc1ccc(CC(NC(C)=O)(C(=O)OCC)C(=O)OCC)cc1`, the melting point lay in the range of 82 to 84 °C.

For the compound `COc1ccc(CN(C)CCCSc2ccc(NC(=O)c3cccc4c(=O)c5cccc(F)c5[nH]c34)cc2)cc1OC`, the melting point is 120 to 130 °C.

The compound `CN1C(=O)C(c2cccc(Br)c2)(c2cnn(CC(F)(F)F)c2)N=C1N` (stereo not given) showed a melting point of 80 to 82 °C.

As for `CS(=O)(=O)c1ccc(/C(=C\C2CCCCCC2)C(=O)Nc2nccs2)cc1`, the melting point was in the range of 163 to 165 °C.

`CCNC(=O)c1c([Si](C)(C)C)ccc(OC)c1Cl`: the melting point fell in the range of 136 to 137 °C.

As for `Cc1cc(C)c2c(c1O)C(=O)C(c1ccccc1)C2` (stereo not given), the melting point was 90.5 to 91 °C.

`COC(=O)CC(=O)CC(O)/C=C/c1c(-c2ccc(F)cc2)n(C(C)C)c(=O)c2ccccc12` (stereo not given) gave a melting point of 147 to 149 °C.

Compound `CCCOc1cc(CCC(=O)O)ccc1OCCCc1cn(-c2ccc(C(F)(F)F)cn2)nc1OCC` came in with a melting point of 106 to 107 °C.

In the case of `O=C(N[C@H](Cc1cccc(C(F)(F)F)c1)[C@@H](O)c1ccc(F)cc1)c1ccc(F)c2ccccc12` (racemic), the melting point lay in the range of 193 to 194 °C.

For `CC1(C)CCC(C)(C)c2cc(-c3cc(-c4ccc(C(=O)O)cc4)ccc3OCCCO)ccc21`, the melting point is 317 °C.

As for `Cc1cccc(C(O)CNC2=NCCN2)c1` (stereo not given), the melting point is 121 °C.

In turn, `N#CCc1ccc(NC(=O)CNc2ccccc2F)cc1` gave a melting point of 111 to 113 °C.

Compound `CC(=O)OC(C(C(=O)C(C)(C)C)n1cncn1)C(Cl)(Cl)Cl` (stereo not given) came in with a melting point of 115 to 119 °C.

The compound `OCC1=CCOc2ccc(Cl)cc21` returned a melting point of 85 to 88 °C.

`CCOC(=O)c1cn(Cc2c(F)cccc2F)c2sc(-c3ccccc3)c(CBr)c2c1=O` registered a melting point of 206 °C.

In turn, `CCOC(=O)c1c(C)nc2c(cnn2CC)c1O` came in with a melting point of 118 to 120 °C.

Take `CCc1nc(OC)c(NC(=O)N2CCN(c3cc(OC)cc(OC)c3)CC2)cc1C`: the melting point fell in the range of 115 to 116 °C.

`Cc1cc(Oc2ncc(C(F)(F)F)cc2Cl)nn1C(=O)NCC(C)C` yielded a melting point of 45 to 47 °C.

As to `COC(=O)C(CS)NC(=O)CNC(=O)CS` (stereo not given), the melting point was in the range of 67 to 69 °C.

In turn, `COCOc1cccc(F)c1C#N` registered a melting point of 53 to 55 °C.

For the compound `O=c1c2ccccc2sc(-c2ccncc2)[n+]1[O-]`, the melting point is 248 to 252 °C.

Turning to `COc1cc2c(cc1-c1ccccc1F)NC(=O)CC(c1cc(C#N)ccc1F)=N2`, the melting point is more than 250 °C.

`CN1CCN=C(c2ccccc2)c2cc(C#N)ccc21` showed a melting point of 149 to 150 °C.

`O=C(Nc1cccc(OC2OC(CO)C(O)C2O)c1)C(F)(F)F` (stereo not given) showed a melting point of 133 to 135 °C.

`CCOC(=O)C1CN(C2CC2)c2nc(Sc3ccc(C)cc3)c(F)cc2C1=O` (stereo not given) displayed a melting point of 124 to 125 °C.

In the case of `Nc1ncc(-c2cccc(-n3cnc4cc(-c5ccco5)ccc43)c2)cn1`, the melting point lay in the range of 220 to 222 °C.

Turning to `CN(C)C(C(=O)C1CCCCC1)C1(c2ccc(Cl)c(Cl)c2)CCC1` (stereo not given), the melting point was 79 to 80 °C.

Take `Cc1cc(C(C)(C)C(=O)O)ccc1O`: the melting point is 145 to 146 °C.

On to `CC1(C)CC(c2ccc(Cl)cc2)=C(c2ccc(S(C)(=O)=O)cc2)C1`, for which the melting point lay within 144 to 145 °C.

`CCCCCCc1cc2c(s1)-n1c(C)nnc1CN=C2c1cccc(C)c1C` showed a melting point of 103 to 105 °C.

For the compound `CC(=O)C(=NNc1ccccc1)C(=O)NCc1ccccc1`, the melting point was in the range of 101 to 103 °C.

Take `CCOC(=O)c1ncc2[nH]c3ccc(I)cc3c2n1`: the melting point is 264 to 266 °C.

`CCOC(=O)c1cnc(-c2ccccc2[N+](=O)[O-])[nH]c1=O`: the melting point fell in the range of 171 to 175 °C.

The compound `N/C(=C1\C(=O)c2cc(Cl)ccc2S1=O)c1ccccc1Cl` (stereo not given) gave a melting point of 248 °C.

Compound `COC(=O)CN(N)CC(=O)OC` had a melting point of 166 °C.

Compound `O=C(C=Cc1ccc(O)c([N+](=O)[O-])c1)N(c1ccccc1)c1ccccc1` yielded a melting point of 197 to 198 °C.

On to `COc1cc(OC)c(F)c(N2Cc3cnc(S(C)=O)nc3N(C3CC3)C2=O)c1F` (stereo not given), for which the melting point was 198 to 200 °C.

`O=c1[nH]nc(Cl)cc1Br` yielded a melting point of 205 to 206 °C.

With `Cc1ncn(-c2ccc(C(=O)N3Cc4cccn4Cc4ccccc43)c(Cl)c2)n1`, the melting point is 191 to 193 °C.

As for `O=C(O)c1cccc2oc(-c3ccccc3OCc3ccccc3)nc12`, the melting point is 103 to 104 °C.

Regarding `N#Cc1cccc(NC(=O)C(=O)N2CCC(Cc3ccc(F)cc3)CC2)c1`, the melting point lay within 135 to 138 °C.

With `CN(C)S(=O)(=O)c1cc2c(c(C(=O)Cl)c1)OCCO2`, the melting point lay in the range of 160 to 162 °C.

For `CC(C)(C)[Si](C)(C)Oc1ccccc1-c1cc(-c2ccc([N+](=O)[O-])cc2)c(C#N)c(NC(=O)c2cccs2)n1`, the melting point was 168 to 169 °C.

As for `O=C(O)Cc1ccc(Oc2ccc(F)cc2)cc1`, the melting point is 87 to 89 °C.

In turn, `CC(=O)N1CCc2ccc(Cl)c(Cl)c2C1` had a melting point of 99.5 to 100 °C.

Turning to `COCc1ccc(C2(O)CCN(CC(O)c3ccc(O)cc3)CC2)cc1` (stereo not given), the melting point is 170 °C.

In turn, `CCOC(=O)c1ccc(N2CCN(C(=O)c3ccc(Cl)cc3)CC2)cc1` gave a melting point of 147 to 150 °C.

In the case of `CN(C)CC1(C2(O)CCCCC2)Cc2cc3ccn(C)c3cc21` (stereo not given), the melting point is 148 to 150 °C.

Regarding `COc1ccc(C)cc1NC(=O)Nc1ccc(N2CCN(C(=O)Nc3ccc(C(O)CO)cc3C)CC2)cc1` (stereo not given), the melting point lay in the range of 112 to 113 °C.

Compound `Cc1cc(O)cc(C)c1C=O` displayed a melting point of 190 °C.

Consider `CCOC(=O)C1=C(N)C(NCC(O)COCc2cccc(CN3CCCCC3)c2)=NS1(=O)=O` (stereo not given), for which the melting point was in the range of 72 to 74 °C.

Compound `COc1cc(C)c(C(=O)c2c(C(F)(F)F)cc(Cl)nc2Cl)c(OC)c1OC` showed a melting point of 81 to 83 °C.

In the case of `COc1ccc(-c2nc(C)c(C(N)=O)s2)cc1OC`, the melting point was in the range of 218 to 220 °C.

As for `COc1ccc(OC)c(CCc2ccc3c(c2)C(=O)NCN3)c1`, the melting point is 138 to 140 °C.

Consider `CN1C(=O)C(C2=COc3ccccc3O2)=C(c2cn(C(=O)OC(C)(C)C)c3ccc(OCc4ccccc4)cc23)C1=O`, for which the melting point came to 93 °C.

The compound `CC(=O)Nc1ccc(N2CCNC2=O)cc1` registered a melting point of 270 to 273 °C.

The record behind these values is a melting point compilation (Tetko et al.; mined from patent text by program, amines drawn as free bases though some values may be those of a salt).
